The assay deals with 5-HT2A receptor (Homo sapiens, UniProt P28223). The assay can be described thus: 5-HT2A receptor isotope competition affinity assay. It is filed as binding. The protocol: A radiolabeled ligand (agonist or antagonist) incubated with receptor protein could form a receptor-ligand complex. An added test compound could compete with the isotopically labeled ligand for the receptor binding, eventually forming a relative steady-state equilibrium. The affinity of the test compound for the receptor was indirectly evaluated by measuring the dissociation of the isotopically labeled ligand from the receptor.
A 100x serial gradient dilution of compounds was prepared in DMSO, starting from 1 mM with 4-fold serial dilutions, resulting in 10 concentration points. Using a pipettor, 1 µL of each gradient concentration of the test compound (final concentration starting at 10 µM, 4-fold serial dilutions, 10 concentration points) was transferred to a 96-well assay plate, to each well of which 49 µL of 5-HT2A receptor protein (102 µg/mL, prepared in an assay buffer: 50 mM Tris-HCl, pH 7.4) had been added in advance (final concentration 5 µg/well). This was followed by the addition of 50 µL of isotopically labeled [^3H]-Ketanserin (2 nM, 2× final concentration, prepared in the assay buffer). The plate was sealed and incubated on a shaker at room temperature for 1 hour. The reaction mixture was filtered through a Unifilter-96 GF/C filter plate pre-treated with 0.3% PEI. The filter plate was washed with a precooled (4°C) assay buffer and then dried in an incubator at 50°C. A scintillation liquid was added, and the plate was read using a MicroBeta2 instrument. The percentage inhibition was calculated using the equation: %Inhibition=(CountHigh Signal Control-CountSample)/(CountHigh Signal Control-CountLow Signal Control)*100. A four-parameter logistic fit was used to calculate the IC50 value. High Signal Control: No compound group (the same volume of DMSO substituted). Low Signal Control: Ketanserin group (non-isotopically labeled, 2× final concentration). Table 1: Results of 5-HT2A receptor isotope competition affinity assay, Ki Values

[1] abbreviates: competition with [3H]-Ketanserin, 1 hour, room temperature, read-out: 5-HT2A receptor/Ki.

Read-outs that look alike come from different tables or passages of the source.

Chain of 5-HT2A receptor (P28223 whole entry): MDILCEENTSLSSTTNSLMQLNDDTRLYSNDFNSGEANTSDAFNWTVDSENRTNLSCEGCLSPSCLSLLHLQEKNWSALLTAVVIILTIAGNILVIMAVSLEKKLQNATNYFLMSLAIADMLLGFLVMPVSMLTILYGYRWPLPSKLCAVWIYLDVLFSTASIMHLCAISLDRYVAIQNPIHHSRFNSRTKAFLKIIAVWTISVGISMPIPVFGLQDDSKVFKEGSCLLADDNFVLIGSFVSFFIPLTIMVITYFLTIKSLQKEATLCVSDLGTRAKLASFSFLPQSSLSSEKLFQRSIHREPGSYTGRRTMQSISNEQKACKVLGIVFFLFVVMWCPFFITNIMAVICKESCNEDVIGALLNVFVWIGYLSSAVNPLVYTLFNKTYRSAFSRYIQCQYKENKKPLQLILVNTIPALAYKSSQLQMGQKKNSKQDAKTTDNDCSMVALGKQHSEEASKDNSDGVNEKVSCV

Take `COc1ccccc1CCN1CCC(c2c[nH]c3cccc(O)c23)C1` (stereo not drawn) [Compound 1, 3-(1-(2-(2-methoxyphenyl)ethyl)pyrrolidin-3-yl)-1H-indol-4-ol]: under setting [1], the Ki was < 100 nM.

Regarding `COc1ccccc1CCCN1CCCC(c2c[nH]c3cccc(O)c23)C1` (stereo not drawn) [Compound 4, 3-(1-(3-(2-methoxyphenyl)propyl)piperidin-3-yl)-1H-indol-4-ol], under setting [1], the Ki is < 100 nM.

For the compound `COc1ccccc1CCCN1CCC(c2c[nH]c3ccccc23)C1` (stereo not drawn) [Compound 5, 3-(1-(3-(2-methoxyphenyl)propyl)pyrrolidin-3-yl)-1H-indole], the Ki under setting [1] is < 100 nM.

Turning to `COc1ccccc1CCCN1CCC(n2ccc3cc(F)ccc32)C1` (stereo not drawn) [Compound 7], under setting [1], the Ki was < 100 nM.

Turning to `COc1ccccc1CCCN1CCC(c2c[nH]c3cccc(F)c23)C1` (stereo not drawn) [Compound 8], the Ki under setting [1] was < 100 nM.

As for `COc1ccccc1CCCN1CCC(c2c[nH]c3cccc(OC)c23)C1` (stereo not drawn) [Compound 9], under setting [1], the Ki was < 100 nM.

Take `COc1ccccc1C1CCN(CCc2c[nH]c3cccc(O)c23)CC1` [Compound 10, 3-(2-(4-(2-methoxyphenyl)piperidin-1-yl)ethyl)-1H-indol-4-ol]: the Ki under setting [1] was < 100 nM.

`COc1ccccc1CCCN1CC(c2c[nH]c3ccccc23)C1` [Compound 11, 3-(1-(3-(2-methoxyphenyl)propyl)azetidin-3-yl)-1H-indole]: the Ki under setting [1] is < 100 nM.

Turning to `COc1ccccc1CCCN1C2CCC1C(c1c[nH]c3ccccc13)C2` (stereo not drawn) [Compound 16, 3-(7-(3-(2-methoxyphenyl)propyl)-7-azabicyclo[2.2.1]heptan-2-yl)-1H-indole], the Ki under setting [1] was < 100 nM.

Consider `COc1ccccc1CCCN1CCC(c2c[nH]c3ncccc23)C1` (stereo not drawn) [Compound 22], for which, under setting [1], the Ki was < 100 nM.

In the case of `COc1ccccc1CCCN1CCC(c2n[nH]c3ccccc23)C1` (stereo not drawn) [Compound 23], under setting [1], the Ki was < 100 nM.

In the case of `COc1ccccc1CCCN1CCOC(c2c[nH]c3ccccc23)C1` (stereo not drawn) [Compound 29, 2-(1H-indol-3-yl)-4-(3-(2-methoxyphenyl)propyl)morpholine], the Ki is < 100 nM.

In the case of `COc1ccccc1CCCN1CCC(c2n[nH]c3ccncc23)C1` (stereo not drawn) [Compound 30], the Ki under setting [1] is < 100 nM.

On to `COc1ccccc1CCCN1CCOC(c2c[nH]c3ccncc23)C1` (stereo not drawn) [Compound 34, 4-(3-(2-methoxyphenyl)propyl)-2-(1H-pyrrolo[3,2-c]pyridin-3-yl)morpholine], for which the Ki is < 100 nM.

Turning to `COc1ccccc1CCCN1CCOC(c2n[nH]c3ccccc23)C1` (stereo not drawn) [Compound 37, 3-(4-(3-(2-methoxyphenyl)propyl)morpholin-2-yl)-1H-indazole], the Ki is < 100 nM.

For the compound `Oc1cccc2[nH]cc(C3CN(CCCc4cc(F)ccc4F)CCO3)c12` (stereo not drawn) [Compound 40], under setting [1], the Ki is < 100 nM.

Take `c1ccc2c(C3CCN(CCCc4nncs4)C3)c[nH]c2c1` (stereo not drawn) [Compound 50, 3-(1-(3-(1,3,4-thiadiazol-2-yl)propyl)pyrrolidin-3-yl)-1H-indole]: the Ki is < 100 nM.

For the compound `c1ccc2c(C3CCN(CCCc4ncsn4)C3)c[nH]c2c1` (stereo not drawn) [Compound 55, 3-(1-(3-(1,2,4-thiadiazol-3-yl)propyl)pyrrolidin-3-yl)-1H-indole], the Ki under setting [1] was < 100 nM.

For `Cn1cc(CCCN2CCC(c3c[nH]c4ccccc34)C2)cn1` (stereo not drawn) [Compound 57, 3-(1-(3-(1-methyl-1H-pyrazol-4-yl)propyl)pyrrolidin-3-yl)-1H-indole], under setting [1], the Ki was < 100 nM.

Take `Cn1cc(CCCN2CCC(n3ccc4cc(F)ccc43)C2)cn1` (stereo not drawn) [Compound 61]: the Ki under setting [1] is < 100 nM.

On to `Cn1cc(CCCN2CCC(c3noc4cc(F)ccc34)C2)cn1` (stereo not drawn) [Compound 68], for which the Ki under setting [1] is < 100 nM.

On to `Cn1cc(CCCN2CCC(c3n[nH]c4ccccc34)C2)cn1` (stereo not drawn) [Compound 69, 3-(1-(3-(1-methyl-1H-pyrazol-4-yl)propyl)pyrrolidin-3-yl)-1H-indazole], for which the Ki was < 100 nM.

Turning to `CC(C)n1cnnc1CCCN1CCC(c2c[nH]c3ccccc23)C1` (stereo not drawn) [Compound 79], the Ki under setting [1] is < 100 nM.

With `CC(C)n1cnnc1CCCN1CCC(n2ccc3cc(F)ccc32)C1` (stereo not drawn) [Compound 80], the Ki under setting [1] was < 100 nM.

As to `Fc1ccc2c(C3CCN(CCCc4nncn4CC(F)(F)F)C3)c[nH]c2c1` (stereo not drawn) [Compound 83], the Ki under setting [1] was < 100 nM.

With `CC(C)n1cnnc1CCCN1CCC(c2c[nH]c3cc(F)ccc23)C1` (stereo not drawn) [Compound 84], the Ki under setting [1] was < 100 nM.

`Cc1nnc(CCCN2CCC(c3c[nH]c4ccccc34)C2)n1C(C)C` (stereo not drawn) [Compound 86, 3-(1-(3-(5-methyl-4-(propan-2-yl)-4H-1,2,4-triazol-3-yl)propyl)pyrrolidin-3-yl)-1H-indole]: the Ki under setting [1] was < 100 nM.

Take `CC1CN(CCCc2nncn2C(C)C)CC1c1c[nH]c2cc(F)ccc12` (stereo not drawn) [Compound 90, 6-fluoro-3-(4-methyl-1-(3-(4-(propan-2-yl)-4H-1,2,4-triazol-3-yl)propyl)pyrrolidin-3-yl)-1H-indole]: the Ki under setting [1] was < 100 nM.

As for `CC(CCc1nncn1C(C)C)N1CCC(c2c[nH]c3cc(F)ccc23)C1` (stereo not drawn) [Compound 91], the Ki under setting [1] was < 100 nM.

For the compound `Fc1ccc2c(C3CCN(CCCc4nncn4C4CCC4)C3)c[nH]c2c1` (stereo not drawn) [Compound 92], the Ki under setting [1] is < 100 nM.

For `Fc1ccc2c(C3CCN(CCCc4nncn4C4CC4)C3)c[nH]c2c1` (stereo not drawn) [Compound 99], under setting [1], the Ki was < 100 nM.

In the case of `CC(C)n1c(CCCN2CCC(c3c[nH]c4cc(F)ccc34)C2)nnc1C(F)(F)F` (stereo not drawn) [Compound 100], under setting [1], the Ki was < 100 nM.

As to `Cc1nnc(CCCN2CCC(n3ccc4cc(F)ccc43)C2)n1C(C)C` (stereo not drawn) [Compound 103], under setting [1], the Ki was < 100 nM.

On to `COc1ncncc1CCCN1CCC(c2c[nH]c3ccccc23)C1` (stereo not drawn) [Compound 132, 3-(1-(3-(4-methoxypyrimidin-5-yl)propyl)pyrrolidin-3-yl)-1H-indole], for which the Ki under setting [1] is < 100 nM.

Take `Oc1cccc2[nH]cc(C3CCN(CCc4coc5c(F)cccc45)C3)c12` (stereo not drawn) [Compound 135]: the Ki under setting [1] is < 100 nM.

Take `CC(C)c1nnc2n1CCC(CN1CCC(c3c[nH]c4ccccc34)C1)C2` (stereo not drawn) [Compound 139, 7-((3-(1H-indol-3-yl)pyrrolidin-1-yl)methyl)-3-isopropyl-5,6,7,8-tetrahydro-[1,2,4]triazolo[4,3-a]pyridine]: the Ki under setting [1] is < 100 nM.

Turning to `c1ccc2c(c1)CC(CN1CCC(c3c[nH]c4ccncc34)C1)CO2` (stereo not drawn) [Compound 141], the Ki under setting [1] is < 100 nM.

For the compound `c1ccc2c(C3CCN(CCc4nnc5sccn45)C3)c[nH]c2c1` (stereo not drawn) [Compound 143, 3-(2-(3-(1H-indol-3-yl)pyrrolidin-1-yl)ethyl)thiazolo[2,3-c][1,2,4]triazole], the Ki under setting [1] is < 100 nM.

On to `c1ccc2c(C3CCN(CC4CCn5c(nnc5C5CC5)C4)C3)c[nH]c2c1` (stereo not drawn) [Compound 145, 3-(1-((3-cyclopropyl-SH,6H,7H,8H-[1,2,4]triazolo[4,3-a]pyridine-7-yl)methyl)pyrrolidin-3-yl)-1H-indole], for which the Ki under setting [1] is < 100 nM.

With `COc1cccc2nnc(CCN3CCC(c4c[nH]c5cc(F)ccc45)C3)n12` (stereo not drawn) [Compound 147, 6-fluoro-3-(1-(2-(5-methoxy-(1,2,4)triazolo(4,3-a)pyridin-3-yl)ethyl)pyrrolidin-3-yl)-1H-indole], the Ki under setting [1] is < 100 nM.

Consider `COc1ccc(F)c2nnc(CCN3CC(c4c[nH]c5cc(F)ccc45)C3)n12` [Compound 148, 6-fluoro-3-(1-(2-(8-fluoro-5-methoxy-(1,2,4)triazolo(4,3-a)pyridin-3-yl)ethyl)azetidin-3-yl)-1H-indole], for which the Ki under setting [1] is < 100 nM.

`Fc1ccc2c(C3CCN(CCc4nnc5c(F)cccn45)C3)c[nH]c2c1` (stereo not drawn) [Compound 149, 6-fluoro-3-(1-(2-(8-fluoro-(1,2,4)triazolo[4,3-a]pyridin-3-yl)ethyl)pyrrolidin-3-yl)-1H-indole]: under setting [1], the Ki was < 100 nM.

Take `Oc1cccc2[nH]cc(C3CCN(CCCc4ncon4)C3)c12` (stereo not drawn) [Compound 173, 3-(1-(3-(1,2,4-oxadiazol-3-yl)propyl)pyrrolidin-3-yl)-1H-indol-4-ol]: the Ki under setting [1] is < 100 nM.

For `CC(C)c1nc(CCCN2CCC(c3c[nH]c4cccc(O)c34)C2)no1` (stereo not drawn) [Compound 174, 3-(1-(3-(5-isopropyl-1,2,4-oxadiazol-3-yl)propyl)pyrrolidin-3-yl)-1H-indol-4-ol], the Ki under setting [1] was < 100 nM.

Regarding `CC(C)c1nc(CCCN2CCC(c3n[nH]c4ccccc34)C2)no1` (stereo not drawn) [Compound 175, 3-(3-(-3-(1H-indazol-3-yl)pyrrolidin-1-yl)propyl)-5-isopropyl-1,2,4-oxadiazole], the Ki under setting [1] was < 100 nM.

As for `c1ccc2c([C@H]3CCN(CCCn4nccn4)C3)c[nH]c2c1` [Compound 177, (R)-3-(1-(3-(2H-1,2,3-triazol-2-yl)propyl)pyrrolidin-3-yl)-1H-indole], the Ki under setting [1] was < 100 nM.

`c1ccc2c([C@@H]3CCN(CCCn4nccn4)C3)c[nH]c2c1` [Compound 178, (S)-3-(1-(3-(2H-1,2,3-triazol-2-yl)propyl)pyrrolidin-3-yl)-1H-indole]: the Ki under setting [1] was < 100 nM.

As for `C1=C(c2c[nH]c3ccccc23)CN(CCCn2nccn2)CC1` [Compound 179, 3-(1-(3-(2H-1,2,3-triazol-2-yl)propyl)-1,2,5,6-tetrahydropyridin-3-yl)-1H-indole], the Ki under setting [1] was < 100 nM.

Source of the values: EP4752142A1, “5-HT2A RECEPTOR AGONIST, AND PREPARATION METHOD THEREFOR AND USE THEREOF” (Innovstone Therapeutics Limited, priority 2023, dated 2025).
